From PMC11546255, “Exploring the Frontier of Cyclic Dipeptides: A Bioinformatics Approach to Potential Therapeutic Applications in Schizophrenia” (International Journal of Molecular Sciences, 2024)

Columns and labels:
human SIGMA1 receptor [1] = molecular target: T1, human SIGMA1 receptor (Homo sapiens, UniProt Q99720); test: SIGMA1 filtration radioligand binding assay ([3H]DTG, membranes of transfected HEK293 cells); set-up: expressed in transfected cells; membrane/cell debris preparation; settings: for inhibition at 20 µM / SIGMA1 % Inhibition of Max Dose: Max Dose 20.000 μM
T1 sequence (Q99720 whole entry): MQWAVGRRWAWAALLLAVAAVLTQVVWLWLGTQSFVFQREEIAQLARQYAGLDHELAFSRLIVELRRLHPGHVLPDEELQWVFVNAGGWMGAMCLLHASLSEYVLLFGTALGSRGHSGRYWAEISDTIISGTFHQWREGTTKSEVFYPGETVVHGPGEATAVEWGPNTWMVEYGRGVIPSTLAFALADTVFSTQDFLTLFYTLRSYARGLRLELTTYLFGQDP
Experimental: For SIGMA1 receptor expression in HEK293 cells, the human SIGMA1 receptor (U75283) in pcDNA 3.1(+) (Promega Corp., Madison, WI, USA) was used. In total, 2 μg of DNA was transfected in HEK293 cells (1,000,000 cells/dish) using FuGENE® HD Transfection Reagent (Promega Corp., Madison, WI, USA) according to the manufacturer’s recommendations. After 24 h, the medium was replaced by a medium containing the G418 antibiotic (300 μg/mL) (Burlington, MA, USA). The survival clones were scraped and cultured in individual dishes. After the cell amplification, they were harvested with trypsin and homogenized, then centrifuged at 50,000× g for 1 h, and the cell debris was used for the binding assay.
A SIGMA1 receptor-enriched membrane preparation was utilized for the binding assays at a 1.1 mg/mL concentration. Each assay well was loaded with 13 μg of this membrane preparation to ensure consistent receptor availability across all experimental conditions.
This methodical preparation ensures that the assay conditions are reproducible and that the concentration-dependent effects of the compounds can be accurately evaluated.
Reference and test compounds were diluted and transferred sequentially to the assay plate. We added non-specific binding compounds (low control, LC) and DMSO as the total binding high control (HC) according to the non-specific binding plate layout. We added 100 μL of the membrane stock solution and 100 μL of the radiolabeled ligand to the plate. We sealed the plates and shook them at 300 rpm under specified conditions. We filtered the reaction mixture through GF/B plates using a Filtermate-Harvester (PerkinElmer, Waltham, MA, USA, Cat: C961961), followed by washing with cold wash buffer, and dried and sealed the filter plates.
We added non-specific binding compounds (as the LC) and DMSO as the total binding HC according to the non-specific binding plate layout. Then, we added 100 μL of the membrane stock solution and 100 μL of the radiolabeled ligand to the plate. We sealed the plates and shook them at 300 rpm under specified conditions. […] After the binding experiment, we filtered the reaction mixture through GF/B plates using a Perkin Elmer Filtermate Harvester, washing each plate six times with a cold wash buffer. We dried the filter plates for 1 h at 50 °C. After drying, we sealed the bottom of the filter plate wells with Perkin Elmer Unifilter-96 backing tape. […] We counted the 3H on the filters using a Perkin Elmer MicroBeta2 Reader.
We analyzed the data using Prism 5. We fitted dose–response curves and determined the half maximal inhibitory concentration (IC50) using the “log(inhibitor) vs. response-variable slope” model.
We used the Z’-Prime equation for quality control, which can be written as follows: Z′ Factor=1−3×STDEVHC+3×STDEVLC/AVGHC − AVGLC∗100% where STDEVHC is the average standard deviation of MAX, STDEVLC is the average standard deviation of MIN, AVGHC is the average of MAX, and AVGLC is the average of MIN. Z’ must be ≥0.5 as the quality control standard.

human SIGMA1 receptor [2] = molecular target: T1, human SIGMA1 receptor; test: radioligand binding; filtration competition assay: membranes of HEK293 cells expressing human SIGMA1 (13 ug per well), [3H]DTG at 0.005 uM displaced by the test compound, max dose 20 uM, room temperature, GF/B filter plates
[3] = [3H]DTG 0.005 μM, membranes of HEK293 cells expressing human SIGMA1, read-out: SIGMA1 IC50
[4] = [3H]DTG 0.005 μM, membranes of HEK293 cells expressing human SIGMA1, read-out: SIGMA1 Ki

| Compound | IC50 (human SIGMA1 receptor [1]; [3]) | Ki (human SIGMA1 receptor [1]; [4]) | SIGMA1 % Inhibition of Max Dose (human SIGMA1 receptor [1]) | further results |
| --- | --- | --- | --- | --- |
| C[C@@H]1NC(=O)[C@H](CCC(N)=O)NC1=O [Cyclo(Ala-Gln)] | 13.4 µM | 11.7 µM |  | inhibition at 20 µM (human SIGMA1 receptor [1]): 59.7% |
| CC1NC(=O)CNC1=O (centres unmarked) [Cyclo(Ala-Gly)] | > 20 µM | > 17.4 µM | 44.60% |  |
| C[C@@H]1NC(=O)[C@H](Cc2cnc[nH]2)NC1=O [Cyclo(Ala-His)] | 19.4 µM | 16.9 µM |  | inhibition at 20 µM (human SIGMA1 receptor [1]): 50.2% |
| O=C1CNC(=O)CN1 [Cyclo(Gly-Gly)] | > 20 µM | > 17.4 µM | 3.200% |  |
| O=C1NC(Cc2ccc(O)cc2)C(=O)N2CC(O)CC12 (centres unmarked) [Cyclo(Hyp-Tyr)] | > 20 µM | > 17.4 µM | 49.80% |  |
| O=C1NC(Cc2ccccc2)C(=O)N2CCCC12 (centres unmarked) [Cyclo(Phe-Pro)] | > 20 µM | > 17.4 µM | 24.20% |  |
| CC(C)C1NC(=O)CNC1=O (centres unmarked) [Cyclo(Val-Gly)] |  |  |  | Ki (human SIGMA1 receptor [1]): 9.95 µM; inhibition at 20 µM (human SIGMA1 receptor [1]): 61.9%; IC50 (human SIGMA1 receptor [1]; SIGMA1 IC50, [3H]DTG 0.005 μM, membranes of HEK293 cells expressing human SIGMA1): 11.5 µM |
| cyclo(Ala-Gln) |  |  |  | % Inhibition of Max Dose (human SIGMA1 receptor [2]): 59.7%; IC50 (human SIGMA1 receptor [2]): 13.4 µM |
| cyclo(Ala-His) |  |  |  | % Inhibition of Max Dose (human SIGMA1 receptor [2]): 50.2%; IC50 (human SIGMA1 receptor [2]): 19.4 µM |
| cyclo(Val-Gly) |  |  |  | % Inhibition of Max Dose (human SIGMA1 receptor [2]): 61.9%; IC50 (human SIGMA1 receptor [2]): 11.5 µM |
| cyclo(Val-Val) |  |  |  | IC50 (human SIGMA1 receptor [2]): > 20 µM; Ki (human SIGMA1 receptor [2]): > 17.4 µM |

More lines, main results first:

| IC50 (human SIGMA1 receptor [1]; [3]) | Ki (human SIGMA1 receptor [1]; [4]) | SIGMA1 % Inhibition of Max Dose (human SIGMA1 receptor [1]) | Compound | further results |
| --- | --- | --- | --- | --- |
| > 20 µM | > 17.4 µM | 42.82% | O=C1CNC(=O)[C@H](Cc2ccc(O)cc2)N1 [Cyclo(Gly-Tyr)] |  |
| > 20 µM | > 17.4 µM | 54.26% | O=C1NC(Cc2ccccc2)C(=O)N2CC(O)CC12 (centres unmarked) [Cyclo(Hyp-Phe)] |  |
| > 20 µM | > 17.4 µM | 39.40% | O=C1N[C@@H](Cc2ccccc2)C(=O)N[C@H]1Cc1ccccc1 [Cyclo(Phe-Phe)] |  |
| > 20 µM | > 17.4 µM | 40.29% | O=C1N[C@@H](Cc2ccc(O)cc2)C(=O)N[C@H]1Cc1ccc(O)cc1 [Cyclo(Tyr-Tyr)] |  |
